The subject of one test is Escherichia coli. Put plainly: Antimicrobial activity against Escherichia coli ATCC 25922 after 48 hrs by broth dilution technique. Type of test: functional. Conditions: ATCC 25922, 48 h. A general note: Broth dilution looks for growth in wells or tubes with falling amounts of substance.
For test [1], the system named is Staphylococcus aureus. Put plainly: Antimicrobial activity against methicillin-sensitive Staphylococcus aureus ATCC 35556 after 48 hrs by broth dilution technique. Type of test: functional. The settings on record: ATCC 35556, 48 h.
The subject of the next test is Vero. As to the kind of experiment: Cytotoxicity against African green monkey Vero cells assessed as reduction in cell viability after 72 hrs by MTT assay. The settings on record: Chlorocebus sabaeus. The format is cell-based.
A further test deals with Candida albicans. As to the kind of experiment: Antimicrobial activity against Candida albicans after 48 hrs by agar dilution method. The format is functional.
The subject of another test is Klebsiella pneumoniae. Put plainly: Antimicrobial activity against Klebsiella pneumoniae after 48 hrs by broth dilution technique. Type of test: functional.
In test [2] the test system is Staphylococcus aureus. Put plainly: Antimicrobial activity against methicillin-resistant Staphylococcus aureus ATCC 43866 after 48 hrs by broth dilution technique. The settings on record: ATCC 43866, 48 h. The format is functional.
Test [3] has as its system Mycobacterium tuberculosis. Put plainly: Antitubercular activity against Mycobacterium tuberculosis H37Rv after 7 days by Resazurin micro titer assay. The format is functional. Conditions: 168 h. Background: The colour change of resazurin is a common sign of viable cells or microbes.

Structures are written as SMILES. Converted amounts (≈) assume the structure as drawn.

Experimental findings from ChEMBL document CHEMBL3351318, “Synthesis of novel 4-nitropyrrole-based semicarbazide and thiosemicarbazide hybrids with antimicrobial and anti-tubercular activity” (Bioorg Med Chem Lett, 2014) are described below.

The term MIC denotes the smallest concentration in the dilution series that meets the test's criterion for growth inhibition. What is called IC50 is the concentration needed to halve the response being measured.

On to `O=C(NNC(=O)c1cc([N+](=O)[O-])c[nH]1)Nc1ccccc1`, for which the minimal inhibitory concentration (MIC) against Escherichia coli turned out to be 3.12 µg/mL (≈ 10.8 µM); against Staphylococcus aureus [1], 1.56 µg/mL (≈ 5.39 µM); against Candida albicans it was 3.12 µg/mL (≈ 10.8 µM); in the test on Klebsiella pneumoniae, 3.12 µg/mL (≈ 10.8 µM); with Staphylococcus aureus [2], 3.12 µg/mL (≈ 10.8 µM); in test [3], 40.6 µg/mL (≈ 140 µM). The 50% inhibitory concentration (IC50) in the test with Vero is 357 µM.

Regarding `COc1ccc(NC(=O)NNC(=O)c2cc([N+](=O)[O-])c[nH]2)cc1`, the MIC is 3.12 µg/mL (≈ 9.79 µM) against Escherichia coli; 1.56 µg/mL (≈ 4.89 µM) against Staphylococcus aureus [1]; 3.12 µg/mL (≈ 9.79 µM) in the test on Candida albicans; 3.12 µg/mL (≈ 9.79 µM) against Klebsiella pneumoniae; 3.12 µg/mL (≈ 9.79 µM) with Staphylococcus aureus [2]; 2.5 µg/mL (≈ 7.83 µM) in test [3]. Further, the IC50 with Vero came out at 401 µM.

With `O=C(NNC(=O)c1cc([N+](=O)[O-])c[nH]1)Nc1ccc([N+](=O)[O-])cc1`, the MIC came out at 3.12 µg/mL (≈ 9.35 µM) in the test on Escherichia coli; 1.56 µg/mL (≈ 4.67 µM) against Staphylococcus aureus [1]; 3.12 µg/mL (≈ 9.35 µM) in the test with Candida albicans; 3.12 µg/mL (≈ 9.35 µM) in the test with Klebsiella pneumoniae; 3.12 µg/mL (≈ 9.35 µM) in the test with Staphylococcus aureus [2]; 0.8 µg/mL (≈ 2.39 µM) in test [3]. In addition, in the test with Vero, the half-inhibitory concentration (IC50) turned out to be 211 µM.

Consider `O=C(NNC(=O)c1cc([N+](=O)[O-])c[nH]1)Nc1ccc(Br)cc1`, for which the minimum inhibitory concentration (MIC) stood at 3.12 µg/mL (≈ 8.49 µM) against Escherichia coli; 1.56 µg/mL (≈ 4.24 µM) with Staphylococcus aureus [1]; 3.12 µg/mL (≈ 8.49 µM) in the test on Candida albicans; 3.12 µg/mL (≈ 8.49 µM) with Klebsiella pneumoniae; 3.12 µg/mL (≈ 8.49 µM) against Staphylococcus aureus [2]; 1.1 µg/mL (≈ 2.99 µM) in test [3]. Moreover, the 50% inhibitory concentration (IC50) with Vero came out at 378 µM.

Consider `O=C(NNC(=O)c1cc([N+](=O)[O-])c[nH]1)Nc1ccc(Cl)cc1`, for which the minimum inhibitory concentration (MIC) worked out at 3.12 µg/mL (≈ 9.65 µM) with Escherichia coli; 3.12 µg/mL (≈ 9.65 µM) in the test with Staphylococcus aureus [1]; 3.12 µg/mL (≈ 9.65 µM) in the test with Candida albicans; 3.12 µg/mL (≈ 9.65 µM) against Klebsiella pneumoniae; 6.25 µg/mL (≈ 19.3 µM) against Staphylococcus aureus [2]; 2 µg/mL (≈ 6.18 µM) in test [3]. For the same molecule, the IC50 in the test on Vero was found to be 218 µM.

In the case of `COc1ccc(OC)c(NC(=O)NNC(=O)c2cc([N+](=O)[O-])c[nH]2)c1`, the MIC was 3.12 µg/mL (≈ 8.95 µM) against Escherichia coli; 1.56 µg/mL (≈ 4.47 µM) against Staphylococcus aureus [1]; 3.12 µg/mL (≈ 8.95 µM) in the test on Candida albicans; 3.12 µg/mL (≈ 8.95 µM) in the test on Klebsiella pneumoniae; 3.12 µg/mL (≈ 8.95 µM) with Staphylococcus aureus [2]; 14.5 µg/mL (≈ 41.5 µM) in test [3]. In addition, in the test with Vero, the IC50 came out at 333 µM.

Regarding `O=C(NCc1ccccc1)NNC(=O)c1cc([N+](=O)[O-])c[nH]1`, the MIC amounted to 6.25 µg/mL (≈ 20.6 µM) against Escherichia coli; 1.56 µg/mL (≈ 5.14 µM) against Staphylococcus aureus [1]; 3.12 µg/mL (≈ 10.3 µM) against Candida albicans; 6.25 µg/mL (≈ 20.6 µM) against Klebsiella pneumoniae; 3.12 µg/mL (≈ 10.3 µM) against Staphylococcus aureus [2]; 15.2 µg/mL (≈ 50.1 µM) in test [3]. Also, in the test on Vero, the IC50 is 348 µM.

`O=C(NCCc1ccccc1)NNC(=O)c1cc([N+](=O)[O-])c[nH]1`: the MIC was determined as 6.25 µg/mL (≈ 19.7 µM) in the test on Escherichia coli; 3.12 µg/mL (≈ 9.85 µM) with Staphylococcus aureus [1]; 3.12 µg/mL (≈ 9.85 µM) against Candida albicans; 6.25 µg/mL (≈ 19.7 µM) against Klebsiella pneumoniae; 6.25 µg/mL (≈ 19.7 µM) against Staphylococcus aureus [2]; 10.3 µg/mL (≈ 32.5 µM) in test [3]. Moreover, the IC50 in the test with Vero was determined as 220 µM.

In the case of `O=C(NCc1ccco1)NNC(=O)c1cc([N+](=O)[O-])c[nH]1`, the MIC against Escherichia coli is 3.12 µg/mL (≈ 10.7 µM); against Staphylococcus aureus [1] it was 1.56 µg/mL (≈ 5.32 µM); against Candida albicans, 3.12 µg/mL (≈ 10.7 µM); in the test on Klebsiella pneumoniae, 3.12 µg/mL (≈ 10.7 µM); against Staphylococcus aureus [2], 3.12 µg/mL (≈ 10.7 µM); in test [3], 0.92 µg/mL (≈ 3.14 µM). The half-maximal inhibitory concentration (IC50) in the test with Vero worked out at 443 µM.

As to `O=C(NNC(=O)c1cc([N+](=O)[O-])c[nH]1)NC1CCCC1`, the minimum inhibitory concentration (MIC) against Escherichia coli was 3.12 µg/mL (≈ 11.1 µM); in the test with Staphylococcus aureus [1], 1.56 µg/mL (≈ 5.55 µM); in the test on Candida albicans, 3.12 µg/mL (≈ 11.1 µM); against Klebsiella pneumoniae it was 3.12 µg/mL (≈ 11.1 µM); in the test on Staphylococcus aureus [2] it was 3.12 µg/mL (≈ 11.1 µM); in test [3], 12.5 µg/mL (≈ 44.4 µM). The IC50 with Vero stood at 231 µM.

In turn, `C[C@@H]1[C@H](O)[C@@H](C)/C=C/C=C/C=C/C=C/C=C/C=C/C=C/[C@H](O[C@@H]2O[C@H](C)[C@@H](O)[C@H](N)[C@@H]2O)C[C@@H]2O[C@](O)(C[C@@H](O)C[C@@H](O)[C@H](O)CC[C@@H](O)C[C@@H](O)CC(=O)O[C@H]1C)C[C@H](O)[C@H]2C(=O)O` [AMPHOTERICIN B] came in with a minimum inhibitory concentration (MIC) against Candida albicans of 3.12 µg/mL (≈ 3.38 µM).

Regarding `O=C(O)c1cn(C2CC2)c2cc(N3CCNCC3)c(F)cc2c1=O` [CIPROFLOXACIN], the MIC amounted to 1.56 µg/mL (≈ 4.71 µM) against Staphylococcus aureus [1], 1.56 µg/mL (≈ 4.71 µM) against Klebsiella pneumoniae and 3.12 µg/mL (≈ 9.43 µM) against Staphylococcus aureus [2].

`NNC(=O)c1ccncc1` [ISONIAZID] returned a minimal inhibitory concentration (MIC) in test [3] of 0.4 µg/mL (≈ 2.92 µM).
